How the values were obtained:
C. glabrata ATCC 200918 = assay: Checkerboard MIC assay, FICI; type: cell-based, Candida glabrata; details: combination with Compound 1
Excerpt: The following assay was used to determine the minimum inhibitory concentration (MIC) and fractional inhibitory concentration index (FICI) for combinations of an antifungal agent and a glycopeptide antibacterial agent. This assay and methods for calculating FICI are well known in the art. See, for example, Eliopoulos, E. G. and R. Moellering, Jr. “Antimicrobial Combinations” in Antibiotics in Laboratory Medicine, edited by V. Lorian, 4th Ed., Williams & Wilkins, Baltimore, MD, pp. 330-396 (1996); […] et al., Antimicrobial Agents and Chemotherapy 47(4):1416-1418 (2003); or […] et al., Antimicrobial Agents and Chemotherapy 46(10):3323-3326 (2002). Procedures, protocols, supplies and equipment used in this assay follow the recommendations approved and published by the National Committee for Clinical Laboratory Standards (NCCLS), Wayne, Pa. as described in NCCLS 2003, “Reference Method for Broth Dilution Antimicrobial Susceptibility Tests for Bacteria that Grow Aerobically; Approved Standard” (NCCLS document M7-A6); NCCLS 2002, “Reference Method for Broth Dilution Antifungal Susceptibility Tests of Filamentous Fungi that Grow Aerobically; Approved Standard” (NCCLS document M38-A); and NCCLS 2002 “Reference Method for Broth Dilution Antifungal Susceptibility Tests of Yeast; Approved Standards-2nd Edition” (NCCLS document M27-A2). Using a checkerboard method, a 2-fold dilution 100× final concentration master plate was prepared using a 96-well U-shape microtiter plate and an appropriate solvent. In the “checkerboard” method, a microtiter plate is divided into “columns” in which each well in the column contains the same amount of an antifungal agent (Compound A) being diluted along the x-axis, and “rows” in which each well in the row contains the same amount of a glycopeptide antibacterial agent (Compound B) being diluted on the y-axis. Also included is a row (or column) for Compound A or B alone. The dilutions used in the checkerboard are exponential (by powers of two). The result is that each well in the microtiter plate contains a unique concentration of the two compounds being tested. […] After mixing, 100 μL of 2× drug combinations were distributed into 96-well microtiter plates. […] Compound A was not added to Column 12, so Column 12 contained only Compound B. Compound B was diluted from row A starting at 6,400 μg/mL down to row G (100 μg/mL). Wells in Row A contained a final concentration of 64 μg/mL of Compound B; Row B contained a final concentration of 32 μg/mL of Compound B; Row C contained a final concentration of 16 μg/mL of Compound B; etc. Compound B was not added to Row H, so Row H only contained Compound A. […] The MIC of the glycopeptide antibacterial agent determined from this experiment was used in FIC calculations. […]

[1] = tested on: C. parapsilosis ATCC 22019; assay: Checkerboard MIC assay, FICI; type: cell-based, Candida parapsilosis; details: combination with Compound 1; C. parapsilosis ATCC 22019
Excerpt: The following assay was used to determine the minimum inhibitory concentration (MIC) and fractional inhibitory concentration index (FICI) for combinations of an antifungal agent and a glycopeptide antibacterial agent. This assay and methods for calculating FICI are well known in the art. See, for example, Eliopoulos, E. G. and R. Moellering, Jr. “Antimicrobial Combinations” in Antibiotics in Laboratory Medicine, edited by V. Lorian, 4th Ed., Williams & Wilkins, Baltimore, MD, pp. 330-396 (1996); […] et al., Antimicrobial Agents and Chemotherapy 47(4):1416-1418 (2003); or […] et al., Antimicrobial Agents and Chemotherapy 46(10):3323-3326 (2002). Procedures, protocols, supplies and equipment used in this assay follow the recommendations approved and published by the National Committee for Clinical Laboratory Standards (NCCLS), Wayne, Pa. as described in NCCLS 2003, “Reference Method for Broth Dilution Antimicrobial Susceptibility Tests for Bacteria that Grow Aerobically; Approved Standard” (NCCLS document M7-A6); NCCLS 2002, “Reference Method for Broth Dilution Antifungal Susceptibility Tests of Filamentous Fungi that Grow Aerobically; Approved Standard” (NCCLS document M38-A); and NCCLS 2002 “Reference Method for Broth Dilution Antifungal Susceptibility Tests of Yeast; Approved Standards-2nd Edition” (NCCLS document M27-A2). Using a checkerboard method, a 2-fold dilution 100× final concentration master plate was prepared using a 96-well U-shape microtiter plate and an appropriate solvent. In the “checkerboard” method, a microtiter plate is divided into “columns” in which each well in the column contains the same amount of an antifungal agent (Compound A) being diluted along the x-axis, and “rows” in which each well in the row contains the same amount of a glycopeptide antibacterial agent (Compound B) being diluted on the y-axis. Also included is a row (or column) for Compound A or B alone. The dilutions used in the checkerboard are exponential (by powers of two). The result is that each well in the microtiter plate contains a unique concentration of the two compounds being tested. […] After mixing, 100 μL of 2× drug combinations were distributed into 96-well microtiter plates. […] Compound A was not added to Column 12, so Column 12 contained only Compound B. Compound B was diluted from row A starting at 6,400 μg/mL down to row G (100 μg/mL). Wells in Row A contained a final concentration of 64 μg/mL of Compound B; Row B contained a final concentration of 32 μg/mL of Compound B; Row C contained a final concentration of 16 μg/mL of Compound B; etc. Compound B was not added to Row H, so Row H only contained Compound A. […] The MIC of the glycopeptide antibacterial agent determined from this experiment was used in FIC calculations. […] RPMI-1640 without sodium bicarbonate media (GIBCO-BRL, Carlsbad, Calif.), an enriched media formulated for mammalian cells, was used according to the NCCLS guidelines for yeast and filamentous fungi susceptibility testing. The medium was buffered with 0.165 M 3-[N-Morpholino]propanesulfonic acid (MOPS) supplemented with 20 g/L glucose and pH adjusted to 7.0 with hydrogen chloride. Sabouraud Dextrose Agar ([…] plates, and Potato Dextrose Agar (PDA) plates were purchased from Hardy Diagnostic (Santa Maria, Calif.). Yeast cultures were started from -80° C. frozen stock streaked on […] incubated at 35° C. under aerobic conditions for 24 h. The […] in the refrigerator for up to 2 weeks and used regularly as a starting culture. About 24 to 48 h before each assay was run, yeasts were streaked on SDA plates for isolated colonies. To prepare the inoculum, from one to four colonies were resuspended in 5 mL of saline, and vortexed for 15 sec. […] For most yeast and mold cultures, the optical density (OD) of the suspension was adjusted to 0.11 in saline to provide 0.4×10^6 CFU/mL. However, for Fusarium moniliforme and Pseudallescheria boydii the OD of the suspension was adjusted to OD=0.17 to provide 0.4×10^6 CFU/mL. […]

Row | SMILES | FICI (C. glabrata ATCC 200918) | FICI [1]
1 | C[C@@H]1[C@H](O)[C@@H](C)/C=C/C=C/C=C/C=C/C=C/C=C/C=C/[C@H](O[C@@H]2O[C@H](C)[C@@H](O)[C@H](N)[C@@H]2O)C[C@@H]2O[C@](O)(C[C@@H](O)C[C@@H](O)[C@H](O)CC[C@@H](O)C[C@@H](O)CC(=O)O[C@H]1C)C[C@H](O)[C@H]2C(=O)O [Amphotericin B] | 0.19 | 0.28
2 | C[C@@H]1[C@H](O)[C@@H](C)/C=C/C=C/CC/C=C/C=C/C=C/C=C/C(O[C@H]2O[C@H](C)[C@@H](O)[C@H](N)[C@@H]2O)CC2O[C@](O)(CC(O)C(O)CCC(O)CC(O)CC(O)CC(=O)O[C@H]1C)CC(O)C2C(=O)O (stereo partly shown) [Nystatin] | 0.31 | 0.31
